Experiment [1] has as its system C3H 10T1/2. Nature of the experiment: Induction of osteogenic differentiation in mouse C3H10T1/2 cells upto 40 uM assessed as osteoblast by measuring alkaline phosphatase after 10 days of differentiation relative to control. The note with it: dose microM <=40, time 10.0 day. Format: functional, cell-based.
Experiment [2] has as its system C3H 10T1/2. Nature of the experiment: Induction of osteogenic differentiation in mouse C3H10T1/2 cells assessed as increase in osteopontin mRNA expression by RT-qPCR analysis relative to control. The experiment is classed as functional, cell-based. Background: Quantitative PCR measures a nucleic acid by following its amplification.
Experiment [3] concerns C3H 10T1/2. The experiment is described as follows: Induction of osteogenic differentiation in mouse C3H10T1/2 cells assessed as increase in alkaline phosphatase mRNA expression by RT-qPCR analysis relative to control. The experiment is classed as functional, cell-based.
Experiment [4] in a line: Induction of osteogenic differentiation in mouse C3H10T1/2 cells assessed as increase in alkaline phosphatase mRNA expression at 40 uM by RT-qPCR analysis relative to control. The experiment is classed as functional, C3H 10T1/2.
Experiment [5] is described as follows: Induction of osteogenic differentiation in mouse C3H10T1/2 cells assessed as increase in osteopontin mRNA expression at 40 uM by RT-qPCR analysis relative to control. Format: functional, C3H 10T1/2.
Experiment [6] deals with C3H 10T1/2. Nature of the experiment: Induction of osteogenic differentiation in mouse C3H10T1/2 cells assessed as osteoblast by measuring increase in alkaline phosphatase at 20 uM relative to control. Format: functional, cell-based.
In experiment [7] the test system is C3H 10T1/2. The experiment is described as follows: Induction of osteogenic differentiation in mouse C3H10T1/2 cells assessed as increase in alkaline phosphatase mRNA expression at 5 uM by RT-qPCR analysis relative to control. Format: functional, cell-based.
Experiment [8] concerns C3H 10T1/2. The experiment is described as follows: Induction of osteogenic differentiation in mouse C3H10T1/2 cells assessed as increase in osteopontin mRNA expression at 5 uM by RT-qPCR analysis relative to control. The experiment is classed as functional, cell-based.

Molecules are shown by their SMILES. The source made the active and inactive calls. The rule behind the calls is not given here.

On to `Oc1ccc(/C=C\C/C=C\c2ccc(O)cc2)cc1`, for which the Activity entry in experiment [1], in experiment [2] and in experiment [3] was “Dose-dependent effect” throughout. Further, the “fold change (FC)” value is on record as 7.8 in experiment [4] and 4.7 in experiment [5]. In addition, the result in experiment [6] was Active.
With `COc1cc([C@H]2O[C@H](c3cc(OC)c(O)c(OC)c3)[C@@H](COC(=O)/C=C/c3ccc(O)cc3)[C@@H]2COC(=O)/C=C/c2ccc(O)cc2)cc(OC)c1O`, the result in experiment [7] and in experiment [8] was Active.
As for `CO[C@@H](c1ccc(O)cc1)[C@H](O)C/C=C\c1ccc(O)cc1`, the outcome in experiment [6] was inactive.

The values above are taken from ChEMBL document CHEMBL4673262, “Ginkgobilol, a new diarylpentanoid and an osteogenic diarylpentanoid analog from Ginkgo biloba leaves” (2020).
